Source: ChEMBL document CHEMBL4014322, “Atropisomerism and Conformational Equilibria: Impact on PI3Kδ Inhibition of 2-((6-Amino-9H-purin-9-yl)methyl)-5-methyl-3-(o-tolyl)quinazolin-4(3H)-one (IC87114) and Its Conformationally Restricted Analogs” (J Med Chem, 2017)

Columns and labels:
[1] = molecular target: PI3-kinase p110-delta/p85-alpha (Homo sapiens, UniProt O00329); experiment: Inhibition of human recombinant full length N-terminal His6-tagged PI3K p110delta/p85alpha expressed in baculovirus infected Sf9 insect cells using PI:PS as substrate after 60 mins by ADP-Glo assay
Chain of PI3-kinase p110-delta/p85-alpha (P27986 whole entry, one chain of several, canonical isoform): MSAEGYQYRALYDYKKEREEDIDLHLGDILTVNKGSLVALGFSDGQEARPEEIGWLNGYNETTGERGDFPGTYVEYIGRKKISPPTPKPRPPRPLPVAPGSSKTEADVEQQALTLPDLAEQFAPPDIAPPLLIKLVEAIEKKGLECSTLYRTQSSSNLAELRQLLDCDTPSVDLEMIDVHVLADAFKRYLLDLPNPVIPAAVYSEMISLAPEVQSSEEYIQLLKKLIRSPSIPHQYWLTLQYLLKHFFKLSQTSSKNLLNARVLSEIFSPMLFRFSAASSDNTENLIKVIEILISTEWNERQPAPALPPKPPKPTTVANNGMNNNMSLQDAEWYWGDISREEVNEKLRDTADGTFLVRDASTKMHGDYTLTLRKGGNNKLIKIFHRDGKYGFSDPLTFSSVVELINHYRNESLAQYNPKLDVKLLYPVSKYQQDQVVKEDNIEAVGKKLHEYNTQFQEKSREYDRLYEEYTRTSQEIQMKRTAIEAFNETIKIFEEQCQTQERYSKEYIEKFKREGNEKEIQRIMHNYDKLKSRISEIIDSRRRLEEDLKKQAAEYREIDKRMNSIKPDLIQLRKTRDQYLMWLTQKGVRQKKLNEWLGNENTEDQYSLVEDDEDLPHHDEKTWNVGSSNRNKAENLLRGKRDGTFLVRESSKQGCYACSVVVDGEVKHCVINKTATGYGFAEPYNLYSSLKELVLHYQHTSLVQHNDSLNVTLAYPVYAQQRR

[2] = molecular target: T1, Phosphatidylinositol 4,5-bisphosphate 3-kinase catalytic subunit delta isoform (Homo sapiens, UniProt O00329)
T1 sequence (O00329 whole entry): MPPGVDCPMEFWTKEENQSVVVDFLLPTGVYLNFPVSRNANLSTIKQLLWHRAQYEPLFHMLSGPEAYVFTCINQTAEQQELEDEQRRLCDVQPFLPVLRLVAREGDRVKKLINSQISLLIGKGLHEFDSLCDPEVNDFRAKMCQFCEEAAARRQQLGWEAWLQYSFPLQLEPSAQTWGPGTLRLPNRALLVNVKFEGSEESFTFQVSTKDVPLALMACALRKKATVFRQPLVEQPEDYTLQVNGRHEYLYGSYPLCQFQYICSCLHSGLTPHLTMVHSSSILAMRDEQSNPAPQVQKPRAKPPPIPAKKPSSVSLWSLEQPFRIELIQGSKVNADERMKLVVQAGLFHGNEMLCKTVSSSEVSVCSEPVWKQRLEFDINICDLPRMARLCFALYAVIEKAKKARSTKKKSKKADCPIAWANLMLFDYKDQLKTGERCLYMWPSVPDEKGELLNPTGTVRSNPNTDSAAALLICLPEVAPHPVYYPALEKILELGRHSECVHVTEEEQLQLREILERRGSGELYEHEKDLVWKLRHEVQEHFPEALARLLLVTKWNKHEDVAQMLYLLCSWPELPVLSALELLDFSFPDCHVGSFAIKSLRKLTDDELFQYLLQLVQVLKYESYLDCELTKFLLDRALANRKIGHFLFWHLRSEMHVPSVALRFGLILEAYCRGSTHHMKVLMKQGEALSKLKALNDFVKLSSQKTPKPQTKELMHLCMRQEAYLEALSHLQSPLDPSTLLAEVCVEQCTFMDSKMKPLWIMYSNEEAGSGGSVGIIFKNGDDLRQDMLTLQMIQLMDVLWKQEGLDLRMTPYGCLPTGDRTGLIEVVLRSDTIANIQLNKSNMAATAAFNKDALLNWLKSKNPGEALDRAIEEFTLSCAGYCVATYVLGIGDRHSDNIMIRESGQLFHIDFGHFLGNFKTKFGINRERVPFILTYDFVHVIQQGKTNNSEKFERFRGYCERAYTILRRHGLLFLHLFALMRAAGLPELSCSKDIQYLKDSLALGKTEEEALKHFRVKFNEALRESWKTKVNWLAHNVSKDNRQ
Description: Inhibition of PI3Kdelta in human PBMC assessed as reduction in anti-human CD28 antibody stimulated IL-6 secretion levels after 72 hrs by ELISA

Structure (SMILES)	Ki [1] [nM]	IC50 [2] [nM]
Cc1ccccc1-n1c([C@H](C)n2cnc3c(N)ncnc32)nc2cccc(C)c2c1=O (stereo in doubt; form 1)	3.16	6.31
Cc1ccccc1-n1c([C@@H](C)n2cnc3c(N)ncnc32)nc2cccc(C)c2c1=O (stereo in doubt; form 1)	126	
Cc1cccc2nc(Cn3cnc4c(N)ncnc43)n(-c3ccccc3)c(=O)c12	25.1	50.1
Cc1ccccc1-n1c([C@@H](C)n2cnc3c(N)ncnc32)nc2cccc(C)c2c1=O (stereo in doubt; form 2)	12.6	
Cc1ccccc1-n1c([C@H](C)n2cnc3c(N)ncnc32)nc2cccc(C)c2c1=O (stereo in doubt; form 2)	1.58	1.26
